Data published in patent publication US9023758B2, “Methods for promoting plant health” (University of Delaware, priority 2009, dated 2015).

Legend:
[1] = test system: B. subtilis strain FB17; test: capillary chemotaxis assay; type: cell-based, Bacillus subtilis
Description: (§1) To evaluate MA's ability to selectively recruit FB17, microbial motility at varying MA doses was measured by capillary chemotaxis assay (Gordillo et al., 2007). […] The concentration range of 5 to 30 μM falls within the biological titers of MA secreted in planta through the root exudates. […] To establish whether L-MA specifically chemoattracts FB17, other beneficial bacteria, such as Pseudomonas fluorescens strain Pf01 and Azospirillum brasilense strain Cd, and pathogenic bacteria, such as Pst DC3000, Erwinia carotovora strain AH2, Agrobacterium rhizogenes strain Arqua-1, and Agrobacterium tumefaciens strain LBA4404, were assayed for MA. […] Bacterial strains used in the chemotactic assay included B. subtilis strain FB17, A. tumefaciens strain LBA4404, E. carotovora strain AH2, A. rhizogenes strain Arqua-1, A. brasilense strain Cd, P. fluorescens (Pf01), and P. syringae (Pst DC3000). Data are the average of six replicates from two experiments conducted separately.

[2] = test system: yqxM operon; type: cell-based, B. subtilis strain Marburg
[3] = test system: PDF1.2 and PR1 transcripts; test: RT-PCR of defense genes PDF1.2 and PR1; type: in vivo, Arabidopsis thaliana; details: leaves, compared to mock inoculated plants
Excerpt: To further confirm that a FB17 component, acetoin, mediates this response we analyzed the defense genes PDF1.2 and Jin1 whose expression depends on functional ET and JA pathways.

[4] = test system: free SA; test: free SA levels in Arabidopsis leaves; details: compared to control untreated plants
[5] = test system: PR1::GUS; test: PR1::GUS reporter expression in Arabidopsis
[6] = test system: DC3000; test: acetoin treatment of Arabidopsis plants leaf inoculated with DC3000
[7] = test system: Agrobacterium rhizogenes strain Arqua-1; test: capillary chemotaxis assay; type: cell-based
Description: as §1

[8] = test system: Agrobacterium tumefaciens strain LBA4404; test: capillary chemotaxis assay; type: cell-based
Description: as §1

[9] = test system: Azospirillum brasilense strain Cd; test: capillary chemotaxis assay; type: cell-based
Description: as §1

[10] = test system: Erwinia carotovora strain AH2; test: capillary chemotaxis assay; type: cell-based
Description: as §1

[11] = test system: Pseudomonas fluorescens strain Pf01; test: capillary chemotaxis assay; type: cell-based
Description: as §1

[12] = test system: Pst DC3000; test: capillary chemotaxis assay; type: cell-based, Pseudomonas syringae pv tomato
Description: as §1

Compound: O=C(O)C[C@@H](O)C(=O)O [D-MA]
- chemotactic efficacy compared to the natural L-MA form ([1]; 30 μM): lower efficacies
- chemotaxis compared to water control ([1]; 30 μM): significantly higher than the water control
- expression of biofilm operon yqxM (β-galactosidase activity) [2]: did not stimulate β-galactosidase activity

Compound: CC(=O)C(C)O (stereo not drawn) [acetoin, 3-hydroxy-2-butanone]
- PDF1.2 transcripts [3]: more
- PR1 transcripts [3]: more
- free SA levels [4]: enhances the total free SA level
- PR1::GUS expression ([5]; treated or root inoculated plants compared to untreated plants): enhanced PR1 expression
- percent disease incidence ([6]; Arabidopsis, ratio of leaves with symptoms to leaves inoculated, vs untreated): significantly lower
- disease symptoms ([6]; Arabidopsis, volatile treatment, 5 days post-infection, compared to untreated controls): significantly lower disease symptoms
- DC3000 CFUs from leaves ([6]; Arabidopsis, vs untreated, P<0.05): lower DC3000 CFUs
- protection from DC3000 infection ([6]; SA deficient NahG plants): failed to protect
- protection from DC3000 infection ([6]; ethylene mutant etr1-3 plants): failed to protect
- DC3000 multiplication in terms of CFUs ([6]; jasmonic acid mutant Jar1-1): significantly reduction in DC3000 multiplication
- DC3000 multiplication in terms of CFUs ([6]; wild type Col-0): significantly reduction in DC3000 multiplication

Compound: O=C(O)C[C@H](O)C(=O)O [L-MA, L-malic acid]
- chemotactic behavior of FB17 ([1]; dose range of 5 to 30 μM): positive chemotactic behavior in a concentration-dependent manner
- motility toward L-MA compared to FB17 [7]: none of the bacteria shows any significant motility
- motility toward L-MA compared to FB17 [8]: none of the bacteria shows any significant motility
- motility toward L-MA compared to FB17 [9]: none of the bacteria shows any significant motility
- motility toward L-MA compared to FB17 [10]: none of the bacteria shows any significant motility
- motility toward L-MA compared to FB17 [11]: none of the bacteria shows any significant motility
- motility toward L-MA compared to FB17 [12]: none of the bacteria shows any significant motility
- expression of biofilm operon yqxM (β-galactosidase activity) [2]: elevated expression
- β-galactosidase activity level and kinetics compared to root exudates [2]: activity level was lower and the kinetics response was abbreviated

Compound: O=C(O)C(=O)O [oxalic acid, reference compound]
- chemotactic efficacy compared to the natural L-MA form ([1]; 30 μM): lower efficacies
- expression of biofilm operon yqxM (β-galactosidase activity) [2]: did not stimulate β-galactosidase activity

Compound: O=C(O)c1ccccc1O [SA]
- PR1 expression ([5]; leaves sprayed): higher PR1 expression
- PR1 expression ([5]; root treated plants): much less PR1 expression
